This is an account of results in ChEMBL document CHEMBL2074190, “Grapefruit juice activates P-glycoprotein-mediated drug transport” (Pharm Res, 1999).

The structures appear in SMILES notation.

This data set concerns the target ATP-dependent translocase ABCB1 (Homo sapiens, UniProt P08183). Put plainly: TP_TRANSPORTER: transepithelial transport (basal to apical) in MDR1-expressing MDCK cells. The following applies: dog. It is filed as functional, cell-based.

Sequence of ATP-dependent translocase ABCB1 (P08183 whole entry): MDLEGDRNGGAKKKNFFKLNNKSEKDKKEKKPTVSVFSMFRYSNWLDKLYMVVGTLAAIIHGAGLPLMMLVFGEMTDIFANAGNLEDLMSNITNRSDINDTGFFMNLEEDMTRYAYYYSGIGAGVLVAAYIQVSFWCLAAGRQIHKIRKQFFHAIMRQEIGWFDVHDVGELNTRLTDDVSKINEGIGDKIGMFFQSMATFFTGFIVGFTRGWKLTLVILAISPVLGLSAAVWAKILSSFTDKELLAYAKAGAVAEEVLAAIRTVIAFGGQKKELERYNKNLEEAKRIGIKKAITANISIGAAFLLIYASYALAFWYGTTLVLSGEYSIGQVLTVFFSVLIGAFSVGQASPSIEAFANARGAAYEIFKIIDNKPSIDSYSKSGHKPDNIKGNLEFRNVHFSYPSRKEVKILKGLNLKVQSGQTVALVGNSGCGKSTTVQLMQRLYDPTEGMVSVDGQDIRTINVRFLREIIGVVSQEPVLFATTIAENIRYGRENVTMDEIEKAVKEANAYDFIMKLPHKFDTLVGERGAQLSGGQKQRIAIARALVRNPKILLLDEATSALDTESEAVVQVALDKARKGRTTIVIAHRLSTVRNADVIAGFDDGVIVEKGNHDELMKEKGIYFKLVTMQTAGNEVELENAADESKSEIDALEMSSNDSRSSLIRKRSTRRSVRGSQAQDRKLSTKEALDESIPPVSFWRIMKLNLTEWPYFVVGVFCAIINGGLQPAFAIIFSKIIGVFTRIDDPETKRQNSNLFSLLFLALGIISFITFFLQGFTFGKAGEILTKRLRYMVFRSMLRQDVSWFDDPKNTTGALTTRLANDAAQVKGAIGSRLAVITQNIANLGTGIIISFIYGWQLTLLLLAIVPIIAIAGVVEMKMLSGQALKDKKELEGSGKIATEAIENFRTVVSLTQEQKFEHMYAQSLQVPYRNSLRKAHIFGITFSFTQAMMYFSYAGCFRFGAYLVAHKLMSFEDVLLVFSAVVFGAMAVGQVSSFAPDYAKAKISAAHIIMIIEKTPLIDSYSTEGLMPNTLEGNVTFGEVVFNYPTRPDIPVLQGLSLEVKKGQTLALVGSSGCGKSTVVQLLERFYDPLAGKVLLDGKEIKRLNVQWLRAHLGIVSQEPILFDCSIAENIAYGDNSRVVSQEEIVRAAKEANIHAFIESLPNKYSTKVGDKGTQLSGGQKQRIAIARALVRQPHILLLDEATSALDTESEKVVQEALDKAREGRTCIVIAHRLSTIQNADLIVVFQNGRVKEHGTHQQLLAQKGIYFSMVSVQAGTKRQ

`CC(C)(C(=O)O)c1ccc(C(O)CCCN2CCC(C(O)(c3ccccc3)c3ccccc3)CC2)cc1` (configuration not stated) [FEXOFENADINE]: the Activity result was “substrate [+]”.
As for `C[C@H]1O[C@@H](O[C@H]2[C@@H](O)C[C@H](O[C@H]3[C@@H](O)C[C@H](O[C@H]4CC[C@@]5(C)[C@H](CC[C@@H]6[C@@H]5C[C@@H](O)[C@]5(C)[C@@H](C7=CC(=O)OC7)CC[C@]65O)C4)O[C@@H]3C)O[C@@H]2C)C[C@H](O)[C@@H]1O` [DIGOXIN], the Activity entry is “substrate [+]”.
